Assay results published in BindingDB's records for doi:10.7270/Q2M0441T (Dalhousie University, 1989).

Target: T1, Phosphatidylcholine-sterol acyltransferase (Homo sapiens, UniProt P04180)
T1 sequence (P04180 whole entry): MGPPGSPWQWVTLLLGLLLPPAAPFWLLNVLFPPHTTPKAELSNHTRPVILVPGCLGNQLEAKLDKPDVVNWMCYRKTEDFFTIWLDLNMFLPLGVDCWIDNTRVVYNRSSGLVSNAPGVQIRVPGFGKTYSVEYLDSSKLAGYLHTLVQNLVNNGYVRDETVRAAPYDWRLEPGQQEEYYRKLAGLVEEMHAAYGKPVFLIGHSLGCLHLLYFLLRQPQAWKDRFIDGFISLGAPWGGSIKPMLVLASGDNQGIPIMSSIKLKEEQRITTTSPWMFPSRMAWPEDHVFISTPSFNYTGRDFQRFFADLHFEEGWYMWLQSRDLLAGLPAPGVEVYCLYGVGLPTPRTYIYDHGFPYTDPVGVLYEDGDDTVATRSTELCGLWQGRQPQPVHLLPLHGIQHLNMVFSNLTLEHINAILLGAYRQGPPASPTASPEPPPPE
Test: Enzyme Assay
Conditions: pH 7.5; 4 °C
Protocol: The phospholipase A2 activity of LCAT was assayed using lecithin and apoA-I containing [9,10-3H] dipalmitoylphosphatidylcholine (DPPC) and measurement of the radioactive fatty acid released from the sn-2-position.

| Structure (SMILES) | IC50 [nM] |
| --- | --- |
| CCCCCCCC(=O)C(F)(F)CCOP(=O)([O-])OCC[N+](C)(C)C [Difluoroketone phospholipid analogue, 1] | > 500 |
| CCCCCCCCOCC(COP(=O)([O-])OCC[N+](C)(C)C)C(F)(F)C(=O)CCCCCCC (centres undefined) [Difluoroketone phospholipid analogue, 2] | 60 |
| CCCCCCCCCCCCCCCCC(=O)C(F)(F)C(COCCCCCCCC)COP(=O)([O-])OCC[N+](C)(C)C (centres undefined) [Difluoroketone phospholipid analogue, 3] | 28 |
| CCCCCCCC(=O)OCC(COP(=O)([O-])OCC[N+](C)(C)C)CC(=O)C(F)(F)CCCCCC (centres undefined) [Difluoroketone phospholipid analogue, 4] | 60 |
